Measured values: ChEMBL document CHEMBL1133900, “Improved synthesis and evaluation of 17-substituted aminoalkylgeldanamycin derivatives applicable to drug delivery systems” (Bioorg Med Chem Lett, 2001)

Test system: A2780
Test: Compound was evaluated for antiproliferative activity against human ovarian carcinoma cell line A2780.
Type: functional, cell-based

IC50 [nM] | SMILES
234 | CO[C@H]1/C=C\C=C(/C)C(=O)NC2=CC(=O)C(NCC(O)CN)=C(C[C@@H](C)C[C@H](OC)[C@H](O)[C@@H](C)/C=C(\C)[C@@H]1OC(N)=O)C2=O (stereo partly drawn)
136 | CO[C@H]1/C=C\C=C(/C)C(=O)NC2=CC(=O)C(NCCCN)=C(C[C@@H](C)C[C@H](OC)[C@H](O)[C@@H](C)/C=C(\C)[C@@H]1OC(N)=O)C2=O
3.4 | COC1=C2C[C@@H](C)C[C@H](OC)[C@H](O)[C@@H](C)/C=C(\C)[C@H](OC(N)=O)[C@@H](OC)/C=C\C=C(/C)C(=O)NC(=CC1=O)C2=O [GELDANAMYCIN]
